Patent US8410095B2, “Thiazolopyrimidinone derivatives as PI3 kinase inhibitors” (GlaxoSmithKline LLC, priority 2009, dated 2013)

molecular target: T1, PI3Kβ (Homo sapiens, UniProt P42338); assay: HTRF in vitro profiling assay for PI3K inhibition, beta isoform; assay type: biochemical; conditions: in at least one experimental run; read-out: IC50 against PI3Kβ
T1 construct: made in house
Text: (§1) HTRF In vitro Profiling Assays for PI3K Inhibition
(§2) The PI3-Kinase profiling assays were developed to measure the compound-dependent inhibition of the alpha, beta, delta, and gamma isoforms of PI3Kin an in vitro catalytic assay. This assay was developed and optimized from a kit produced by Upstate (Millipore catalog #33-017). Briefly, this procedure utilizes a pre-formed HTRF (Homogeneous Time-Resolved Fluorescence energy transfer) complex between four binding partners: 1) biotinylated PIP3, 2) GST tagged pleckstrin homology (PH) domain, 3) Europium labeled anti-GST monoclonal antibody, and 4) Streptavidin-Allophycocyanin (APC). The native PIP3 produced by PI 3-Kinase activity displaces biotin-PIP3 from the PH domain, resulting in the dissociation of the HTRF complex and a decrease in the fluorescence signal. The format of this assay is the same for all 4 isoforms of PI3K; the differences lie in the concentration of enzyme used to achieve the most robust signal. The alpha and delta assays are run at […] enzyme and the gamma assay is run at 1 nM enzyme. In addition, the alpha, beta and delta assays are run with 150 mM NaCl while the gamma assay is run in the absence of NaCl. The ATP concentration is 100 uM in the alpha, beta, and delta assays and 15 uM ATP in the gamma assay. All reactions are run at 10 uM PIP2
Compounds are serially diluted (3-fold in 100% DMSO) across a 384-well polypropylene mother plate from column I to column 12 and column 13 to column 24, to yield 11 concentrations for each test compound. Columns 6 and 18 contain only DMSO. Once titrations are made, 0.05 μL is transferred to a 384-well low-volume assay plate (Greiner 784076). This assay plate contains three pharmacological controls (known PI3K inhibitors) and 3 assay controls: (1) Enzyme without inhibitor; (2) Buffer minus enzyme, and (3) Buffer minus enzyme plus native PIP3. DMSO is stamped into all wells of columns 6 and 18. PIP3 is added at 40 μM in 1× Reaction buffer (1 μL of 200 μM PIP3) to alternating rows of column 18 (wells 18 B, D, F, H, J, L, N, P). […]

T1 sequence (P42338 whole entry, canonical isoform): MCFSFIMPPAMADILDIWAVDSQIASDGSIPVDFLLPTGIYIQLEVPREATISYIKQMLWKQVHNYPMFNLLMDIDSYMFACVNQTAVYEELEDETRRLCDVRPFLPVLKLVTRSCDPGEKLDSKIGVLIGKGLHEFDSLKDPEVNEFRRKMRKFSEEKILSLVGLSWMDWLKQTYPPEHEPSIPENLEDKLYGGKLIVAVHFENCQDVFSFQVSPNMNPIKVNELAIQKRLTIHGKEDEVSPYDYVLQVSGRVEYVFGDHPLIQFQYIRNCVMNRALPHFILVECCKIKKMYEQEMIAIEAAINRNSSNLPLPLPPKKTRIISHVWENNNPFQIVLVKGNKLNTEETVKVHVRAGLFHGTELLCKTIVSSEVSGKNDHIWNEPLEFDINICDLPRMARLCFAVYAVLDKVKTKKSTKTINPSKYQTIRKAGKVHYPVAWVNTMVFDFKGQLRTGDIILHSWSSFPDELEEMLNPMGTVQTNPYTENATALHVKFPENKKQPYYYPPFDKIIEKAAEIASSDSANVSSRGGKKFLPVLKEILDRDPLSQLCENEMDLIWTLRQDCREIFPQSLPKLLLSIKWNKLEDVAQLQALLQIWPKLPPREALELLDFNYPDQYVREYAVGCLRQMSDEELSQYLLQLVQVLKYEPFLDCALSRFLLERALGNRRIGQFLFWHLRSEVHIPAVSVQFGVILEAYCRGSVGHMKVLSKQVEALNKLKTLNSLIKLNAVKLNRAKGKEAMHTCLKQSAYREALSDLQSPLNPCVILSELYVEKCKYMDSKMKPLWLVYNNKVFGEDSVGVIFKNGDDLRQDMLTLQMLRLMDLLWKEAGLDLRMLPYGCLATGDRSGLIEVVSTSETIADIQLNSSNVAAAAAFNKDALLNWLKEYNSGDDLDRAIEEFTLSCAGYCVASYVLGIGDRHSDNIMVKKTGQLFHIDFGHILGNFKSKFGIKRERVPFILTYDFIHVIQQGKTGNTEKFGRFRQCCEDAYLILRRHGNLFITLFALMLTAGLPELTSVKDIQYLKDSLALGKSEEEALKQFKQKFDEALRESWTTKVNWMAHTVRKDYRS
T1 sequence (P27986 whole entry partner, canonical isoform): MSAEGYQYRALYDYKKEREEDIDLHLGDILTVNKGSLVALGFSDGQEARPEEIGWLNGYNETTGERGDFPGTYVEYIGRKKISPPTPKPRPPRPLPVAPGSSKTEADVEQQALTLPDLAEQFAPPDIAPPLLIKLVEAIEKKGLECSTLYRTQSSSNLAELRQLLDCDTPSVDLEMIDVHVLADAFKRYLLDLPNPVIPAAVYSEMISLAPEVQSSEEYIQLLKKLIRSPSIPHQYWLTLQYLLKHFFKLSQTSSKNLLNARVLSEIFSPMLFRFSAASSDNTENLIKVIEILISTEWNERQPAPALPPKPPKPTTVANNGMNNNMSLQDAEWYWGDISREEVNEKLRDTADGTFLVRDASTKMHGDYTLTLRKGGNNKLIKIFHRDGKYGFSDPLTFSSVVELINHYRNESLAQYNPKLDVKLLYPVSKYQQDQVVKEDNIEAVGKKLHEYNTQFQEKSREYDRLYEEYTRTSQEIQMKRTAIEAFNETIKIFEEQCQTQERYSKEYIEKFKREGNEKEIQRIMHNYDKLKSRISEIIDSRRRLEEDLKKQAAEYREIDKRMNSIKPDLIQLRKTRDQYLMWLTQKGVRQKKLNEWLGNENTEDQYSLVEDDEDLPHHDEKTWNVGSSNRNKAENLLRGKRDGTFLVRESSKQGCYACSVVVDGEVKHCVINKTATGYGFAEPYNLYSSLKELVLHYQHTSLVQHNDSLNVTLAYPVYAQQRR

IC50 | SMILES
320 nM | O=c1ncn(Cc2ccccc2C(F)(F)F)c2nc(N3CCOCC3)sc12 [Example 1, 2-(4-morpholinyl)-4-{[2(trifluoromethyl)phenyl]methyl}[1,3]thiazolo[4,5-d]pyrimidin-7(4H)-one]
0.5 nM | Cc1c(Cn2c(C)nc(=O)c3sc(N4CCOCC4)nc32)cccc1C(F)(F)F [Example 59, 5-methyl-4-{[2-methyl-3-(trifluoromethyl)phenyl]methyl}-2-(4-morpholinyl)[1,3]thiazolo[4,5-d]pyrimidin-7(4H)-one]
400 nM | Cc1c(Cl)cccc1Cn1cnc(=O)c2sc(N3CCOCC3)nc21 [Example 3, 4-[(3-chloro-2-methylphenyl)methyl]-2-(4-morpholinyl)[1,3]thiazolo[4,5-d]pyrimidin-7(4H)-one]

molecular target: T2, PI3Kδ (Homo sapiens, UniProt O00329); assay: HTRF in vitro profiling assay for PI3K inhibition, delta isoform; assay type: biochemical; conditions: in at least one experimental run; read-out: IC50 against PI3Kδ
T2 construct: made in house
Text: as §1, §2
Compounds are serially diluted (3-fold in 100% DMSO) across a 384-well polypropylene mother plate from column I to column 12 and column 13 to column 24, to yield 11 concentrations for each test compound. Columns 6 and 18 contain only DMSO. Once titrations are made, 0.05 μL is transferred to a 384-well low-volume assay plate (Greiner 784076). This assay plate contains three pharmacological controls (known PI3K inhibitors) and 3 assay controls: (1) Enzyme without inhibitor; (2) Buffer minus enzyme, and (3) Buffer minus enzyme plus native PIP3. DMSO is stamped into all wells of columns 6 and 18. PIP3 is added at 40 μM in 1× Reaction buffer (1 μL of 200 μM PIP3) to alternating rows of column 18 (wells 18 B, D, F, H, J, L, N, P). The no-enzyme control reactions are run in wells 18 A, C, E, G, I, K, M, O (0.1 μL of 100% DMSO).
The PI3-Kinase profiling assay was optimized using the HTRF kit provided by Upstate (Millipore). The assay kit contains seven reagents: 1) 4× Reaction Buffer; 2) native PIP2 (substrate); 3) Stop A (EDTA); 4) Stop B (Biotin-PIP3); 5) Detection Mix A (Streptavidin-APC); 6) Detection Mix B (Eu-labeled Anti-GST plus GST-tagged PH-domain); 7) Detection Mix C (KF). In addition, the following items were obtained or purchased: PI3Kinase (prepared by GSK BR&AD), dithiothreitol (Sigma, D-5545), Adenosine-5′-triphosphate (ATP, Teknova cat. #A0220), native PIP3 (1,2-dioctanoyl-sn-glycero-3-[phosphoinositil-3,4,5-triphosphate]tetraammonium salt (Avanti polar lipids, 850186P), DMSO (Sigma, 472301).
PI3Kinase Reaction Buffer is prepared by diluting the stock 1:4 with de-ionized water. Freshly prepared DTT is added at a final concentration of 5 mM on the day of use. Enzyme addition and compound pre-incubation are initiated by the addition of 2.5 μL of PI3K (at twice its final concentration) in 1× reaction buffer to all wells using a Multidrop Combi. Plates are incubated at room temperature for 15 minutes. Reactions are initiated by addition of 2.5 μL of 2× substrate solution (PIP2 and ATP in 1× reaction buffer) using a Multidrop Combi. Plates are incubated at room temperature for one hour. Reactions are quenched by the addition of 2.5 μL of stop solution (Stop A and Stop B pre-mixed at a ratio of 5:1, respectively) to all wells using the Multidrop Combi. […]

T2 sequence (O00329 whole entry, canonical isoform): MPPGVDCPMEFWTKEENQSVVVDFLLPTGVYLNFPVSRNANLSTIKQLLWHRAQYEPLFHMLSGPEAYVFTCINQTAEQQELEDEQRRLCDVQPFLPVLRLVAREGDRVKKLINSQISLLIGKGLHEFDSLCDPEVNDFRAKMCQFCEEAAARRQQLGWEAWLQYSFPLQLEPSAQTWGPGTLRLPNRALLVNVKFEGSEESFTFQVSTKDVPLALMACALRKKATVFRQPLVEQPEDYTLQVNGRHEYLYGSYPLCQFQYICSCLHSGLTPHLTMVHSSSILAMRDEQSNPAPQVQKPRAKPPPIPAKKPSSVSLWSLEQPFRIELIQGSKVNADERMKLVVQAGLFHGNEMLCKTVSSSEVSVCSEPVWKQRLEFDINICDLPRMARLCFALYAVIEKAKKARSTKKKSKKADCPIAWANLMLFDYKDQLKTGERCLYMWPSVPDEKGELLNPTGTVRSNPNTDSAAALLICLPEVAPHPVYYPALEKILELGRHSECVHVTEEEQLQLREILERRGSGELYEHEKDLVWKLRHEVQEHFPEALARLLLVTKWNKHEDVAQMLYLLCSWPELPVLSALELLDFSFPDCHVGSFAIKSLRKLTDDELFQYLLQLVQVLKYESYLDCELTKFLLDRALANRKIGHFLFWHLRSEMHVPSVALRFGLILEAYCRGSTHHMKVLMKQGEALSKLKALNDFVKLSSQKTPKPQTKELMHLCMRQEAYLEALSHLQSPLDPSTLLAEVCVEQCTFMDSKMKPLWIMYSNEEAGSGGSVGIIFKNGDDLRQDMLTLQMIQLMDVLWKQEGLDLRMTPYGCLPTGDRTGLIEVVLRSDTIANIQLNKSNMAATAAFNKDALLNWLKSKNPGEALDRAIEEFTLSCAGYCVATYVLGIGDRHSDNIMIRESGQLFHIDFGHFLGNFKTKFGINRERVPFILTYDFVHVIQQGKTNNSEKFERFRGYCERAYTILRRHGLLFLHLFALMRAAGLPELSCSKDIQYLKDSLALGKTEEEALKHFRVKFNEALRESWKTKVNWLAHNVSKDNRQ
T2 sequence (P27986 2-724 partner limits assumed): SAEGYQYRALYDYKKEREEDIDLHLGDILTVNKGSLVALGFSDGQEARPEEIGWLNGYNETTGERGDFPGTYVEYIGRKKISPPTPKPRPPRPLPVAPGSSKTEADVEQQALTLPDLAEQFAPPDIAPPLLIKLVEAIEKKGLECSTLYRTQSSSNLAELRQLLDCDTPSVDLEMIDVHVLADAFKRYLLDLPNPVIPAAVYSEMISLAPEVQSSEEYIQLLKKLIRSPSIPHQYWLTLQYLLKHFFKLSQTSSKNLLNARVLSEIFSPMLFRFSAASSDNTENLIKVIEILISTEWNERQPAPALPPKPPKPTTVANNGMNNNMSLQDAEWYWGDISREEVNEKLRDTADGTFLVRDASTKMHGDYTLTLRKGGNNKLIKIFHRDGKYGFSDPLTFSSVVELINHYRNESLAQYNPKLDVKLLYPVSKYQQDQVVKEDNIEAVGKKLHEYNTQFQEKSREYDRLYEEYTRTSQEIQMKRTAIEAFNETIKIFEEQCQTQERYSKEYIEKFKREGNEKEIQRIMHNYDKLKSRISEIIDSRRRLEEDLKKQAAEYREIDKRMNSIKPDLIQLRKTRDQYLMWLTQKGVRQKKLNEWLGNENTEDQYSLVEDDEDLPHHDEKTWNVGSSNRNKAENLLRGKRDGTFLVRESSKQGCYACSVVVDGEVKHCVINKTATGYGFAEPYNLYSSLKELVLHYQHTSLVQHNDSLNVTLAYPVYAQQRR

IC50 | SMILES
8 nM | N#Cc1cccc(Cn2cnc(=O)c3sc(N4CCOCC4)nc32)c1 [Example 20, 3-{[2-(4-morpholinyl)-7-oxo[1,3]thiazolo[4,5-d]pyrimidin-4(7H)-yl]methyl}benzonitrile]

same assay, conditions: in at least one experimental run; read-out: pIC50 against PI3Kδ (converted)

IC50 | SMILES
50.1 nM | Cc1c(Cn2c(-c3ccccc3)nc(=O)c3sc(N4CCOCC4)nc32)cccc1C(F)(F)F [Example 79, 4-{[2-methyl-3-(trifluoromethyl)phenyl]methyl}-2-(4-morpholinyl)-5-phenyl[1,3]thiazolo[4,5-d]pyrimidin-7(4H)-one]
0.158 nM | CCc1nc(=O)c2sc(N3CCOCC3)nc2n1Cc1cccc(Cl)c1C [Example 75, 4-[(3-chloro-2-methylphenyl)methyl]-5-ethyl-2-(4-morpholinyl)[1,3]thiazolo[4,5-d]pyrimidin-7(4H)-one]
0.126 nM | Cc1c(Cl)cccc1Cn1c(CO)nc(=O)c2sc(N3CCOCC3)nc21 [Example 84, 4-[(3-chloro-2-methylphenyl)methyl]-5-(hydroxymethyl)-2-(4-morpholinyl)[1,3]thiazolo[4,5-d]pyrimidin-7(4H)-one]
1.26 nM | Cc1c(Cl)cccc1Cn1c(C2CCCO2)nc(=O)c2sc(N3CCOCC3)nc21 (stereo not drawn) [Example 83, 4-[(3-chloro-2-methylphenyl)methyl]-2-(4-morpholinyl)-5-(tetrahydro-2-furanyl)[1,3]thiazolo[4,5-d]pyrimidin-7(4H)-one]
2.51 nM | Cc1c(Cl)cccc1Cn1c(CN)nc(=O)c2sc(N3CCOCC3)nc21 [Example 111, 5-(aminomethyl)-4-[(3-chloro-2-methylphenyl)methyl]-2-(4-morpholinyl)[1.3]thiazolo[4,5-d]pyrimidin-7(4H)-one]
